Entries after “also recorded” stand apart in the source; their conditions may differ.
Molecular target: α-glucosidase from recombinant Saccharomyces cerevisiae (Saccharomyces cerevisiae, UniProt P53341)
Assay: α-glucosidase inhibitory activity assay
Assay type: biochemical
Conditions: comparison among the fractions and compounds 1-8 isolated from CCF

Chain of α-glucosidase from recombinant Saccharomyces cerevisiae (P53341 whole entry): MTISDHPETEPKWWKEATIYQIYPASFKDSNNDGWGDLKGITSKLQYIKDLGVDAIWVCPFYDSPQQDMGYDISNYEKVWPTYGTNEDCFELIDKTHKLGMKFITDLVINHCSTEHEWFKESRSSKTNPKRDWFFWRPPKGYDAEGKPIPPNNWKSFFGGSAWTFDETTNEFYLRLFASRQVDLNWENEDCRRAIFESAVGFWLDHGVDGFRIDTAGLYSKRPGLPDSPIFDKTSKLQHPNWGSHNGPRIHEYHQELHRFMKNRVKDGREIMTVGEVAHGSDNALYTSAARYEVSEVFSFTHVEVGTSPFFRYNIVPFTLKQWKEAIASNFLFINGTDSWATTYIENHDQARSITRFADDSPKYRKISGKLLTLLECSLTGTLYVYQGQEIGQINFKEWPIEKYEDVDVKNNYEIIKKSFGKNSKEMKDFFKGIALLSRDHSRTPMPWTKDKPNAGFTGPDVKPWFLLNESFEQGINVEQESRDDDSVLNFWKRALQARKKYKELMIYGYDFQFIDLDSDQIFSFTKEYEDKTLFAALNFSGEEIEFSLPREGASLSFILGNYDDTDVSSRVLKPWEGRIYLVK

| SMILES | α-glucosidase inhibitory activity (comparison in words) |
| --- | --- |
| O=c1c(O)c(-c2ccc(O)cc2)oc2cc(O)cc(O)c12 [Compound 3, kaempferol] | higher α-glucosidase inhibitory activity than the flavonoid |
| O=c1c(O)c(-c2ccc(O)cc2)oc2cc(O[C@@H]3O[C@H](CO)[C@@H](O)[C@H](O)[C@H]3O)cc(O)c12 [Compound 8, kaempferol-7-O-β-D-glucoside] | higher α-glucosidase inhibitory activity than the flavonoid |
| O=c1c(O[C@@H]2O[C@H](CO)[C@H](O)[C@H](O)[C@H]2O)c(-c2ccc(O)c(O)c2)oc2cc(O)cc(O)c12 [Compound 4, hyperin] | more significant inhibitory activity against α-glucosidase than other mono-hydroxy flavonoids |
| O=c1c(O)c(-c2ccc(O)c(O)c2)oc2cc(O)cc(O)c12 [Compound 6, quercetin] | higher α-glucosidase inhibitory activity than the flavonoid; also recorded: more significant inhibitory activity against α-glucosidase than other mono-hydroxy flavonoids; also recorded: highest α-glucosidase inhibitory activity |

— PMC4904746 (EXCLI Journal, 2013)
